Assay results reported in ChEMBL document CHEMBL2203200, “Synthesis and antitrypanosomal activity of new 6,6,7-trisubstituted thiopyrano[2,3-d][1,3]thiazoles” (Bioorg Med Chem Lett, 2012).

Experiments:
[1] = tested on: Trypanosoma brucei brucei; assay: Antimicrobial activity against bloodstream forms of Trypanosoma brucei brucei 90-13 at 1 ug/ml after 72 hrs by resazurin assay; format: functional; settings: 90-13, 72 h
[2] = tested on: Trypanosoma brucei brucei; assay: Antimicrobial activity against bloodstream forms of Trypanosoma brucei brucei 90-13 after 72 hrs by resazurin assay; format: functional, organism-based; settings: 90-13, 72 h
[3] = tested on: Trypanosoma brucei gambiense; assay: Antimicrobial activity against bloodstream forms of Trypanosoma brucei gambiense Feo after 72 hrs by resazurin assay; format: functional, organism-based
[4] = tested on: Trypanosoma brucei brucei; assay: Antimicrobial activity against bloodstream forms of Trypanosoma brucei brucei 90-13 at 10 ug/ml after 72 hrs by resazurin assay; format: functional; settings: 90-13, 72 h
[5] = tested on: Trypanosoma brucei gambiense; assay: Antimicrobial activity against bloodstream forms of Trypanosoma brucei gambiense Feo at 10 ug/ml after 72 hrs by resazurin assay; format: functional
[6] = tested on: Trypanosoma brucei gambiense; assay: Antimicrobial activity against bloodstream forms of Trypanosoma brucei gambiense Feo at 1 ug/ml after 72 hrs by resazurin assay; format: functional

Compound: CCN(CC)c1ccc([C@H]2c3sc(=O)[nH]c3SC[C@]23CC(=O)N(c2ccc(Cl)cc2)C3=O)cc1 (relative stereo)
- inhibition at 1 µg/mL [1]: 21.1%
- IC50 [2]: 2400 nM
- IC50 [3]: 3620 nM
- inhibition at 10 µg/mL [4]: 98.2%

Compound: COc1cc([C@H]2c3sc(=O)[nH]c3SC[C@@]2(CC(=O)O)C(=O)O)ccc1OC(F)F (relative stereo)
- inhibition at 1 µg/mL [1]: 11.3%
- inhibition at 10 µg/mL [4]: < 5%

Compound: CN(C)c1ccc([C@H]2c3sc(=O)[nH]c3SC[C@@]2(CC(=O)O)C(=O)O)cc1 (relative stereo)
- inhibition at 1 µg/mL [1]: 5.3%
- inhibition at 10 µg/mL [4]: < 5%

Compound: N=C(N)c1ccc(OCCCCCOc2ccc(C(=N)N)cc2)cc1 [PENTAMIDINE]
- IC50 [2]: 3.2 nM
- IC50 [3]: 5.2 nM

Compound: COc1ccc([C@H]2c3sc(=O)[nH]c3SC[C@]23CC(=O)N(c2ccc(Cl)cc2)C3=O)cc1OC (relative stereo)
- inhibition at 1 µg/mL [1]: 82.4%
- IC50 [2]: 262 nM
- IC50 [3]: 423 nM
- inhibition at 10 µg/mL [4]: 93.6%

Compound: O=C1C[C@]2(CSc3[nH]c(=O)sc3[C@@H]2c2ccccc2O)C(=O)N1c1ccc(Cl)cc1 (relative stereo)
- inhibition at 10 µg/mL [5]: 19.3%
- inhibition at 1 µg/mL [1]: 13.4%
- inhibition at 1 µg/mL [6]: 0.9%
- inhibition at 10 µg/mL [4]: 11.5%

Compound: COc1cc([C@H]2c3sc(=O)[nH]c3SC[C@@]2(CC(=O)O)C(=O)O)ccc1OCc1ccccc1 (relative stereo)
- inhibition at 1 µg/mL [1]: 18.1%
- inhibition at 10 µg/mL [4]: < 5%

Compound: COc1ccc([C@H]2c3sc(=O)[nH]c3SC[C@]23CC(=O)N(c2ccc(Cl)cc2)C3=O)cc1 (relative stereo)
- inhibition at 10 µg/mL [5]: 9.8%
- inhibition at 1 µg/mL [1]: 10.6%
- inhibition at 1 µg/mL [6]: 2.3%
- inhibition at 10 µg/mL [4]: 13%

Compound: O=C1C[C@]2(CSc3[nH]c(=O)sc3[C@@H]2c2ccccc2O)C(=O)N1c1ccc(O)cc1 (relative stereo)
- inhibition at 10 µg/mL [5]: 15.4%
- inhibition at 1 µg/mL [1]: 7%
- inhibition at 1 µg/mL [6]: < 5%
- inhibition at 10 µg/mL [4]: 18.5%

Compound: CN(C)c1ccc([C@H]2c3sc(=O)[nH]c3SC[C@]23CC(=O)N(c2ccc(Cl)cc2)C3=O)cc1 (relative stereo)
- inhibition at 1 µg/mL [1]: 36.8%
- IC50 [2]: 1280 nM
- IC50 [3]: 1470 nM
- inhibition at 10 µg/mL [4]: 98.2%

Compound: Cc1cccc(N2C(=O)C[C@]3(CSc4[nH]c(=O)sc4[C@@H]3c3ccccc3O)C2=O)c1 (relative stereo)
- inhibition at 10 µg/mL [5]: 15.3%
- inhibition at 1 µg/mL [1]: 5.5%
- inhibition at 1 µg/mL [6]: < 5%
- inhibition at 10 µg/mL [4]: 24.5%

Compound: CCN(CC)c1ccc([C@H]2c3sc(=O)[nH]c3SC[C@@]2(CC(=O)O)C(=O)O)cc1 (relative stereo)
- inhibition at 1 µg/mL [1]: < 5%
- inhibition at 10 µg/mL [4]: 5.6%
